Here are results for 1 substance from patent US20240269104A1, “METHOD FOR TREATING PARKINSON'S DISEASE” (Olatec Therapeutics, Inc., priority 2021, published 2024).

Series [1] deals with MPTP-injected-mouse model of PD. The series can be described thus: accelerating rotarod test after MPTP-acute administration. In kind it is in vivo, C56BL/J mice. Particulars: anakinra 20 mg/kg intraperitoneal 30 minutes before MPTP; day 3. Here is the method:
MPTP (Sigma-Aldrich, St. Louis, MO) can be administered at two dose regimens: acute and sub-acute. For the acute regimen, MPTP was administered intraperitoneally (i.p.) four times in one day. Administrations were performed every two hours over an eight-hour period. For the subacute regimen, mice received a single i.p. administration of MPTP per day for five consecutive days. A 20 mg/kg free-base MPTP dose was used for every dose in both models. Sterile saline was used as the vehicle. Control mice were injected with saline solution using the same administration protocol and were defined as sham. Mice were sacrificed at different days after the first injection of MPTP. We used the acute protocol in C56BL/J mice to study dopamine neurodegeneration, inflammation, and motor deficits, whereas the subacute model was used to evaluate α-synuclein aggregation in the following examples. […]
The accelerating rotarod (Ugo Basile, Gemonio, ITALY) was used to evaluate locomotor function in mice subjected to the MPTP-acute administration. An accelerating program was selected to detect locomotor impairments associated to MPTP (Keshet et al, J Comp Neurol 504:690-701, 2007; Rui et al., Int J Neuropsychopharmacol., 2020). We used a rotarod device with a cylinder rod of three centimeters in diameter. The mice underwent a training period of three consecutive days prior to MPTP administration. In each training session, mice were subjected to run at four constant speeds (10 rpm, 20 rpm, 30 rpm, and 40 rpm) for 150 seconds at each speed. If mice fell during that time, they were put back in the rotarod immediately. On the testing day, we used an increased-speed program. Mice were placed on the rotarod device for 150 seconds at 30 rpm as warm up. Immediately after 150 seconds, the accelerating session started, and the speed increased from 30 rpm to 70 rpm for 500 seconds. Time to fall was recorded. Accelerating sessions were repeated three times with a resting interval of five minutes between sessions. Average time to fall per mouse was calculated and used as final measurement.
We then evaluated the effect of dapansutrile. To avoid overloading animals with fluid (which can lead to fatal heart failure), dapansutrile was administered through oral gavage at 200 mg/kg in water. Dapansutrile was given 30 minutes before the first injection of MPTP. Mice treated with saline were used as control. We also included a sham-group that received saline through intraperitoneal injections instead of MPTP. […]
(In general: In the rotarod test animals must keep their balance on a rotating rod.)

The conditions of series [2]: in vivo; cited from earlier work.

For the substance “anakinra: Interleukin-1 receptor antagonist (IL-1Ra), 17.3 kDa; differs from native human IL-1Ra by an added amino-terminal methionine and absence of glycosylation [reference compound]”, the “rotarod latency to fall versus control mice treated with saline” value in series [1] is listed as “the same latency to fall”. Also, the CSF penetration in series [2] is on record as 0.2-0.3%.
